{
  "source": "paper PMC7407272",
  "about": "“Induction of Lysosome Membrane Permeabilization as a Therapeutic Strategy to Target Pancreatic Cancer Stem Cells” (Cancers, 2020)",
  "key": {"[1]": {"system": "PDAC1 adherent 2D monolayers", "assay": "Viability curves on PDAC1 adherent 2D monolayers", "type": "cell-based", "conditions": "Homo sapiens, 30 h", "text": "The PDAC patient-derived xenograft (PDX) Panc354 (referred to hereafter as PDAC3) was obtained from Dr. Manuel Hidalgo under a Material Transfer Agreement with the Spanish National Cancer Centre (CNIO), Madrid, Spain (Reference no. I409181220BSMH). PDAC1, PDAC2 and PDAC4 PDXs were established from primary patient resected tumors. Samples were provided by the BioBank Hospital Ramón y Cajal-IRYCIS (PT13/0010/0002), integrated in the Spanish National Biobanks Network and they were processed following standard operating procedures with the appropriate approval of the Ethical and Scientific Committees (Control no. No. Control: DE-BIOB-73 AC65, RG.BIOB-96 REV, and CI-BIOB-08-10-01 rev), with informed consent and according to Declaration of Helsinki principles. Primary patient tumors were subcutaneously implanted in immunocompromised female 6- to 8-week-old NU-Foxn1nu nude mice (Envigo, Barcelona, Spain) and subsequently passage in vivo to establish PDX PDAC1, PDAC2 and PDAC4. Primary PDX-derived in vitro cultures were established as previously detailed. […]\nMurine embryonic stem cells (mESCs) were plated at 20,000 cells per well in gelatinized 96 well plates. […] Trypsinized cells were counted and 20,000 cells were plated in wells of standard tissue culture-treated plates (Corning) and treated the following day with indicated compounds and concentrations."}, "CSNK1G1": {"molecular_target": "T1, CSNK1G1 (Homo sapiens, UniProt Q9HCP0)", "T1 construct": "purchased DiscoveRx KINOMEscan", "assay": "KINOMEscan", "type": "binding", "conditions": "read-out: % Ctrl"}, "GSK3A": {"molecular_target": "T2, GSK3A (Homo sapiens, UniProt P49840)", "T2 construct": "purchased DiscoveRx KINOMEscan", "assay": "KINOMEscan", "type": "binding", "conditions": "read-out: % Ctrl"}, "ULK1": {"molecular_target": "T3, ULK1 (Homo sapiens, UniProt O75385)", "T3 construct": "purchased DiscoveRx KINOMEscan", "assay": "KINOMEscan", "type": "binding", "conditions": "read-out: % Ctrl"}, "BUB1": {"molecular_target": "T4, BUB1 (Homo sapiens, UniProt O43683)", "T4 construct": "purchased DiscoveRx KINOMEscan", "assay": "KINOMEscan", "type": "binding", "conditions": "read-out: % Ctrl"}, "JNK3": {"molecular_target": "T5, JNK3 (Homo sapiens, UniProt P53779)", "T5 construct": "purchased DiscoveRx KINOMEscan", "assay": "KINOMEscan", "type": "binding", "conditions": "read-out: % Ctrl"}, "CDKL3": {"molecular_target": "T6, CDKL3 (Homo sapiens, UniProt Q8IVW4)", "T6 construct": "purchased DiscoveRx KINOMEscan", "assay": "KINOMEscan", "type": "binding", "conditions": "read-out: % Ctrl"}, "LYN": {"molecular_target": "T7, LYN (Homo sapiens, UniProt P07948)", "T7 construct": "purchased DiscoveRx KINOMEscan", "assay": "KINOMEscan", "type": "binding", "conditions": "read-out: % Ctrl"}, "ALK(L1196M)": {"molecular_target": "T8, ALK(L1196M) (Homo sapiens, UniProt Q9UM73, L1196M)", "T8 construct": "purchased DiscoveRx KINOMEscan", "T8 sequence (Q9UM73 19-1620 L1196M)": "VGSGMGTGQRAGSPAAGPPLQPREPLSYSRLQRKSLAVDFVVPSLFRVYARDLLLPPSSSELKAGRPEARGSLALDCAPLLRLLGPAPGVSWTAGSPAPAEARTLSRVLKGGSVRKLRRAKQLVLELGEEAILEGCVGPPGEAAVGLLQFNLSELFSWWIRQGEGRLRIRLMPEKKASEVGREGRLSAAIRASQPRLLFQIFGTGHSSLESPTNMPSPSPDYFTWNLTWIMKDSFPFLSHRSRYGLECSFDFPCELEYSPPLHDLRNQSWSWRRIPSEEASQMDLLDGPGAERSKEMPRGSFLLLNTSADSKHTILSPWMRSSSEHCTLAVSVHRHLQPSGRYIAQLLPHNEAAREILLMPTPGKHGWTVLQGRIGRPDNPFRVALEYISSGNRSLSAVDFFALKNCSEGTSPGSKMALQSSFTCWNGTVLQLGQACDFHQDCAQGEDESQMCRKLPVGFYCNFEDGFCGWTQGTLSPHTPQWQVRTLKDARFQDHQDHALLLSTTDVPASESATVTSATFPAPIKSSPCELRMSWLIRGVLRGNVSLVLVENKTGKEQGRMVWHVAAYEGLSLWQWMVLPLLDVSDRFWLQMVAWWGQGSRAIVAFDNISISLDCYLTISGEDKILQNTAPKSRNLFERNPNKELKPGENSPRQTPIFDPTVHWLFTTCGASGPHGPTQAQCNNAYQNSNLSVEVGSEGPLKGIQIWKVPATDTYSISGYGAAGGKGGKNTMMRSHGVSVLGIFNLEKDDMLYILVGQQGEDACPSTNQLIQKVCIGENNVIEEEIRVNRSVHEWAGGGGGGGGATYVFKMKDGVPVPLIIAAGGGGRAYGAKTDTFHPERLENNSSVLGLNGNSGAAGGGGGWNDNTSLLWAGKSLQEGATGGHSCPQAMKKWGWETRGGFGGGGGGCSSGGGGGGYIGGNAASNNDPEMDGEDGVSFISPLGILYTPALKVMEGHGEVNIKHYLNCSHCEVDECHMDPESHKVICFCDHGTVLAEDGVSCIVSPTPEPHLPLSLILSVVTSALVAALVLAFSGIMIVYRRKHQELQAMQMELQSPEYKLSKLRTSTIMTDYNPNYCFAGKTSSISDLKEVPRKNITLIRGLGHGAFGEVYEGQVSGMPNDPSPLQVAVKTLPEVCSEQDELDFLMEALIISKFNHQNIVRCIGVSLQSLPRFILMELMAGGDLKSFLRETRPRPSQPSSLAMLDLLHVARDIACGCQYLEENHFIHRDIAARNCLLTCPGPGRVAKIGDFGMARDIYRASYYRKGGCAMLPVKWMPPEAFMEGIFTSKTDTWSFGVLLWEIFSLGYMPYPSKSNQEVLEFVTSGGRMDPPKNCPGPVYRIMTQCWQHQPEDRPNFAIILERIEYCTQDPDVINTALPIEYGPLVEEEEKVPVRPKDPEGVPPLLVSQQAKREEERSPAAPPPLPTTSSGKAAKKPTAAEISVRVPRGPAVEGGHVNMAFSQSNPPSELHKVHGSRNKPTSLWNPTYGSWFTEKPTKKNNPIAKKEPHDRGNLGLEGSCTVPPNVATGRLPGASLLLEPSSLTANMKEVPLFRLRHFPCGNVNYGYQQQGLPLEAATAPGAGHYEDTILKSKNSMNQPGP", "assay": "KINOMEscan", "type": "binding", "conditions": "read-out: % Ctrl"}, "CHEK2": {"molecular_target": "T9, CHEK2 (Homo sapiens, UniProt O96017)", "T9 construct": "purchased DiscoveRx KINOMEscan", "assay": "KINOMEscan", "type": "binding", "conditions": "read-out: % Ctrl"}, "ABL1(F317L)-P": {"molecular_target": "T10, ABL1(F317L)-P (Homo sapiens, UniProt P00519, F317L)", "T10 construct": "purchased DiscoveRx KINOMEscan", "T10 sequence (P00519 whole entry F317L)": "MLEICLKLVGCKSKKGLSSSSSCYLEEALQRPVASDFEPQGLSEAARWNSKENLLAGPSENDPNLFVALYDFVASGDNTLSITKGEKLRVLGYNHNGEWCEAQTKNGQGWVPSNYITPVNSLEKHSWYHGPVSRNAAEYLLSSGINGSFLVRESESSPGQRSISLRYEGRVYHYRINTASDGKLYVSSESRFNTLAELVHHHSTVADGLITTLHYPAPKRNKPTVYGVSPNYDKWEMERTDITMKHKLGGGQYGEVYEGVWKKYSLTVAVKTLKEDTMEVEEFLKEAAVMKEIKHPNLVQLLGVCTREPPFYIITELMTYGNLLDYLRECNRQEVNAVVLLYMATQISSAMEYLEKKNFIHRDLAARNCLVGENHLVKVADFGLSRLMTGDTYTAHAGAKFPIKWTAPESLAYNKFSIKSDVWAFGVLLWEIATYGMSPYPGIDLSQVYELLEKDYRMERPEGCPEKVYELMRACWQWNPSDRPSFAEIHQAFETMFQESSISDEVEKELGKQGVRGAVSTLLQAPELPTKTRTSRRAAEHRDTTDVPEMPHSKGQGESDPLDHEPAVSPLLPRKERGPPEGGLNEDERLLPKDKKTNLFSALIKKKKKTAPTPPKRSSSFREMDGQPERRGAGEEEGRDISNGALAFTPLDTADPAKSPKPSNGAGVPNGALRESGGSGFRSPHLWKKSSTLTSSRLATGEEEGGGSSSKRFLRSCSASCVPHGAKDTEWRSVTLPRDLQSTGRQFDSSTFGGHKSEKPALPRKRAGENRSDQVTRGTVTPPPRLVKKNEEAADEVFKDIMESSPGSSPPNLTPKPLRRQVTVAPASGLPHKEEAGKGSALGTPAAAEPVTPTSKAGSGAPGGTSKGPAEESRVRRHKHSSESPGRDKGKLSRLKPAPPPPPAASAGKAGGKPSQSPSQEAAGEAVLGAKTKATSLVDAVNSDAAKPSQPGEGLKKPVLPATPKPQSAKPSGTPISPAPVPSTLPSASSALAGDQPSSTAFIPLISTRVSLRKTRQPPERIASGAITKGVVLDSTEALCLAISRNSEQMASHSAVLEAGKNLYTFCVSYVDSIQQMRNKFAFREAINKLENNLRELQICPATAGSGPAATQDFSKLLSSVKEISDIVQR", "assay": "KINOMEscan", "type": "binding", "conditions": "read-out: % Ctrl"}, "BRSK2": {"molecular_target": "T11, BRSK2 (Homo sapiens, UniProt Q8IWQ3)", "T11 construct": "purchased DiscoveRx KINOMEscan", "T11 sequence (Q8IWQ3 whole entry)": "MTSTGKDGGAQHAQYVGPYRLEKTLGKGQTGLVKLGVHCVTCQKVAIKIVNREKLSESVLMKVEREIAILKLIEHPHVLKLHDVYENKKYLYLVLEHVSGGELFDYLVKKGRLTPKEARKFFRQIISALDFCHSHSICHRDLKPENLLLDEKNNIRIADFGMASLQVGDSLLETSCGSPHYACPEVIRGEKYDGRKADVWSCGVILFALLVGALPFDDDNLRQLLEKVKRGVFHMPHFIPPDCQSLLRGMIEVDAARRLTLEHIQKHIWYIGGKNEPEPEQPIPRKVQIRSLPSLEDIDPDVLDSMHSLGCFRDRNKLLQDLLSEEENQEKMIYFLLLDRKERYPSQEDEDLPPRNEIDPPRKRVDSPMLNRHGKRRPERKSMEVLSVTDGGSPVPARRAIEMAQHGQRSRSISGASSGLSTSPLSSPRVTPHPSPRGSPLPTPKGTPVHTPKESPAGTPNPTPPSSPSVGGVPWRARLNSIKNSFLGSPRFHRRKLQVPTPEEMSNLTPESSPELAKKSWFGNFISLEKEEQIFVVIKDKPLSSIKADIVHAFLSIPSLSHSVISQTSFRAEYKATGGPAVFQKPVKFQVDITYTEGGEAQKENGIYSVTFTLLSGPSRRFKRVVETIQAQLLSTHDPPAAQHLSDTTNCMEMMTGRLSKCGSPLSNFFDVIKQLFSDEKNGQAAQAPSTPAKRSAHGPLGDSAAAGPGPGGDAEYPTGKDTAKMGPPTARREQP", "assay": "KINOMEscan", "type": "binding", "conditions": "read-out: % Ctrl"}},
  "note": "pEC50: −log10 of the molar value.",
  "data": [
    {"compound": "COc1nc2ccc(NCC3CCN(C)CC3)nn2c1C(=O)Nc1cccc(OC(F)(F)F)c1", "note": "[Cpd 1]", "values": [
      {"measurement": "pEC50", "setting": "[1]", "value": "~5.45"}
    ]},
    {"compound": "CN1CCC(CNc2ccc3ncc(C(=O)Nc4cccc(OC(F)(F)F)c4)n3n2)CC1", "note": "[Cpd 2]", "values": [
      {"measurement": "remaining binding at 1 µM", "setting": "CSNK1G1", "value": 99, "unit": "%"},
      {"measurement": "remaining binding at 1 µM", "setting": "GSK3A", "value": 100, "unit": "%"},
      {"measurement": "remaining binding at 1 µM", "setting": "ULK1", "value": 98, "unit": "%"},
      {"measurement": "remaining binding at 1 µM", "setting": "BUB1", "value": 62, "unit": "%"},
      {"measurement": "remaining binding at 1 µM", "setting": "JNK3", "value": 100, "unit": "%"},
      {"measurement": "remaining binding at 1 µM", "setting": "CDKL3", "value": 91, "unit": "%"},
      {"measurement": "remaining binding at 1 µM", "setting": "LYN", "value": 98, "unit": "%"},
      {"measurement": "remaining binding at 1 µM", "setting": "ALK(L1196M)", "value": 100, "unit": "%"},
      {"measurement": "remaining binding at 1 µM", "setting": "CHEK2", "value": 95, "unit": "%"},
      {"measurement": "remaining binding at 1 µM", "setting": "ABL1(F317L)-P", "value": 100, "unit": "%"},
      {"measurement": "remaining binding at 1 µM", "setting": "BRSK2", "value": 100, "unit": "%"}
    ]}
  ]
}
